What was measured:
Assay type in all cases: cell-based, human
[1] = system: SLC16-dependent pyruvate transport; experiment: Pyronic FRET pyruvate transport assay in 293T cells; conditions: 293T cells pre-incubated with inhibitor; 0.4 mM pyruvate, pH 7.4
Source text: To obtain “proof of concept” for monocarboxylate transport by SLC16A11, pyruvate was focused on as the metabolite transported by all four SLC16 category I proteins, whose real-time transport in mammalian cells can be readily studied by the pyruvate FRET sensor, pyronic. 293T cells were co-transfected with pyronic and either empty vector control or SLC16A11-V5, which increases SLC16A11 levels without affecting other category I family members (FIG. 3M). Cells were perfused in physiological pH 7.4 Ringer's solution and 0.4 mM pyruvate was added at the indicated time point (FIG. 3D), resulting in an increase of the fluorescence signal, indicative of pyruvate uptake. […] Thus, this is consistent with the increase in fluorescence resulting from SLC16-dependent pyruvate transport.
Cells were transferred onto glass cover slips in 60 mm tissue culture dishes 72 hr prior to the experiment. […] Cytoplasmic pH changes, indicative of H^+ transport, were determined in cells loaded with 1 μM BCECF-AM (Rink, T. J. et al., 1982, J Cell Biol, 95:189-196), a pH sensitive dye. […] Rates of proton influx and efflux were calculated as the slopes immediately following addition and withdrawal of pyruvate, after correcting for baseline drift. Baseline drift due to fluorescence bleaching is calculated during the initial 50 seconds of each trace prior to addition of pyruvate. […]

SLC16A11 [2] = experiment: Compound treatment, SLC16A11 expression by ddPCR in SNU761 cells; conditions: SNU761 cells; for SLC16A11 transcript levels, compound treated compared to DMSO treated cells: same concentrations and treatment times as LINCS, ddPCR
Protocol: (§1) A small number of the compounds that made the strongest positive connections to the SLC16A11 gene expression signature were selected and tested. […] Methotrexate was also included, which had been annotated as a dihydrofolate reductase inhibitor. SNU761 cells (derived from a human hepatocellular carcinoma) and NCIH716 cells (derived from a human cecum adenocarcinoma), which both express SLC16A11, were treated with the compounds. The same compound concentrations and treatment times were used as in the LINCS dataset experiments. […] For normalization, a different housekeeper gene, HPRT1, was used and obtained similar results with the mTOR inhibitors (FIGS. 14A and 14B).
From the total list of compounds, 59 readily available compounds were selected from the 79 compounds with the largest connectivity scores to the query signature and 20 middle compounds with connectivity scores centered on 0 (FIG. 15A) and then treated SNU761 cells at the same doses and treatment times as were used in the LINCS dataset. It was expected that the top compounds would be enriched for compounds that increased SLC16A11 expression. […] The results were aligned with the expectations (FIG. 15B). Hierarchical clustering of the SLC16 expression profiles generated by the compound treatments are shown by the heat map in FIG. 15C.
(§2) SNU761 (human hepatocellular carcinoma) and NCIH716 (human cecum adenocarcinoma) were cultured in RPMI Medium 1640 supplemented with 10% Fetal Bovine Serum (FBS), 100 μg/ml Streptomycin and 100 U/ml Penicillin. Cells were grown in a humidified CO2 incubator, at 37° C.
(§3) For the unbiased approach taken to investigate the compounds that connected to the SLC16A11 gene expression signature, compounds were obtained from compound management at the Broad Institute.
(§4) SNU761 and NCIH716 cells were plated into 96 well plates at a density of 20,000 cells per well. Hepatocytes were plated into collagen coated 96 well plates (Corning, 354408) at a density of 50,000 cells per well. After 24 hours, cells were treated with compounds at a final concentration of 10 μM or vehicle control for the appropriate amount of time.
At the time of collection, cells in 96 well plates were lysed by directly adding 50 μL of RLT buffer (Qiagen). 75 μL of AMPure XP beads, diluted by a factor of 5 in polyethylene glycol, were then added to bind nucleic acids. One wash with polyethylene glycol was then performed. DNase treatment (Qiagen) was carried out according to the manufacturer's protocol in a final volume of 50 μL. 100 μL of polyethylene glycol was added after the DNase treatment to crowd nucleic acids back onto the beads. Two washes with 80% ethanol were performed and residual ethanol was removed. RNA was then eluted in water.
(§5) RNA was DNase treated and converted into cDNA using the High-Capacity RNA-to-cDNA kit (Thermo Fisher Scientific). The following FAM-labeled TaqMan Real-Time PCR assays (Thermo Fisher Scientific) were used to quantify gene expression: SLC16A11 (Hs00601062_g1), SLC16A13 (Hs00416832_m1), SLC16A1 (Hs01560299_m1). The VIC-labeled TaqMan Real-Time assays TBP (Hs00427620_m1) or HPRT1 (Hs02800695_m1) were used for normalization. Droplets were generated and analyzed using a QX200 Droplet Generator and Reader system (BioRad). Data was extracted using QuantaSoft (BioRad) and analyzed using Microsoft Excel.

SLC16A11 [3] = experiment: Compound treatment, SLC16A11 expression by ddPCR in NCIH716 cells; conditions: same concentrations and treatment times as LINCS
Protocol: as §1, §2, §3, §4
At the time of collection, cells in 96 well plates were lysed by directly adding 50 μL of RLT buffer (Qiagen). […]
as §5, with “The VIC-labeled TaqMan Real-Time assays TBP (Hs00427620_m1) or HPRT1 (Hs02800695_m1) were used for normalization.” left out

SLC16A1 [4] = experiment: Compound treatment, SLC16A1 expression by ddPCR in NCIH716 cells; conditions: 10 μM for 24 hours
Protocol: (§6) FIGS. 14A-14D provide graphs showing that mTOR inhibitors increase SLC16A11, but not SLC16A1 transcript levels. […] SLC16A11 (FIGS. 14A and 14B) and SLC16A1 (FIGS. 14C and 14D) expression was then assessed using droplet digital PCR (ddPCR). Bar plots depict relative fold-changes with respect to DMSO and error bars and standard deviations. Expression is normalized to housekeeping genes TBP or HPRT1.
(§7) A small number of the compounds that made the strongest positive connections to the SLC16A11 gene expression signature were selected and tested. […] Methotrexate was also included, which had been annotated as a dihydrofolate reductase inhibitor. SNU761 cells (derived from a human hepatocellular carcinoma) and NCIH716 cells (derived from a human cecum adenocarcinoma), which both express SLC16A11, were treated with the compounds. […]
as §5, with “The VIC-labeled TaqMan Real-Time assays TBP (Hs00427620_m1) or HPRT1 (Hs02800695_m1) were used for normalization.” left out

SLC16A11 (A11) = experiment: ddPCR based screening assay for modulators of SLC16A11 expression (Z′); conditions: SNU 761 cells; compound as positive control
Source text: As detailed herein above, SLC16A11 (A11) belongs to a family of monocarboxylate transporters. Expression of A11 was studied in SNU 761 cell lines. These liver cancer cells are ideal for studying SLC16A11 expression because A11 is expressed in higher quantity in liver cells, although expression of the gene in all tissues is extremely low. The 5 SNP risk haplotype causes lowered expression and interferes with protein-protein interactions between A11 and a cofactor protein, indicating loss of function. Therefore, increasing A11 expression in individuals with the risk haplotype is likely beneficial.
The quality of an assay can be quantified by Z′, a measure of how well the assay can differentiate between the positive and negative controls. Using the formula: […]
First the cells were treated with inhibitor compounds, their RNA was extracted, and that RNA was used as a template to create DNA. Then, the DNA was quantified using droplet digital PCR (ddPCR), analyzed and quantified using QuantaSoft™ (BioRad). […]
From the QuantaSoft scoring of each droplet, the means and standard deviations of SLC16A11 expression levels was determined in response to compound treatment. […] Points in light gray had the gene of interest and were scored as positive (FIG. 17C). SLC16A11 was scored in the graph. […]

SLC16A1 [5] = experiment: Compound treatment, SLC16A1 expression by ddPCR in SNU761 cells; conditions: 10 μM for 24 hours
Protocol: as §6, §7
as §5, with “The VIC-labeled TaqMan Real-Time assays TBP (Hs00427620_m1) or HPRT1 (Hs02800695_m1) were used for normalization.” left out

Row | Compound | pyronic fluorescence signal (pyruvate uptake) [1] | SLC16A11 transcript levels, compound treated compared to DMSO treated cells (SLC16A11 [2]) | SLC16A11 transcript levels, compound treated compared to DMSO treated cells (SLC16A11 [3]) | SLC16A1 expression with respect to DMSO (SLC16A1 [4]) | avg_fc (SLC16A11 expression, compound treated vs DMSO treated cells) (SLC16A11 [2]; same doses and treatment times as in the LINCS dataset) | increase in SLC16A11 expression, compound treated compared to DMSO treated cells (SLC16A11 [2]; unbiased test of 59 top and 20 middle LINCS compounds, LINCS doses and times) [fold] | A11 expression in manual ddPCR assay (SLC16A11 (A11)) | SLC16A1 expression with respect to DMSO (SLC16A1 [5])
1 | Cc1n[nH]c(C)c1Cc1sc2c(c1C(=O)N1C[C@H](O)CO1)c(=O)n(C)c(=O)n2CC(C)C [AR-C155858] | completely diminished | – | – | – | – | – | – | –
2 | CN(Cc1cnc2nc(N)nc(N)c2n1)c1ccc(C(=O)N[C@@H](CCC(=O)O)C(=O)O)cc1 [methotrexate, reference compound] | – | did not alter | did not alter | – | – | – | – | –
3 | COc1ccc(-c2ccc3c(N4CCOCC4)nc(N4C[C@@H](C)O[C@@H](C)C4)nc3n2)cc1CO [KU-0063794, [5-[2-(2,6-dimethylmorpholin-4-yl)-4-morpholin-4-ylpyrido[2,3-d]pyrimidin-7-yl]-2-methoxyphenyl]methanol] | – | about 3 fold | about 3 fold | slight decrease | 4.009 | ~4 | increased | slight decrease

— patent US11471462B2, “Compositions and methods for detecting and treating diabetes” (THE BROAD INSTITUTE, INC., priority 2016, dated 2022)
